Reference: publication PMC11813896, “Bis(7)-harmine derivatives as potential multi-target anti-Alzheimer agents” (Frontiers in Chemistry, 2025)
Like-named read-outs stand apart in the source and are kept apart here.

What was measured:
Aβ1-42 = conditions: cited from earlier work
AChE = conditions: cited from earlier work
BACE1 = test system: BACE1; set-up: method as in Bolognesi et al., 2010; conditions: ref Bolognesi et al., 2010; read-out: IC50 for inhibiting BACE1 (bis-tacrine); cited from earlier work
BuChE = conditions: cited from earlier work
SHSY5Y cells [1] = assay: Protection of SHSY5Y cells against damage induced by Aβ 1−42, MTT; type: cell-based, human; conditions: for cellular recovery from Aβ 1-42-induced damage: 1 μM, co-exposed with Aβ 1-42 for 48 h
Protocol: The protective effect of the test compounds against Aβ 1-42-induced damage was assessed by monitoring MTT reduction in cells co-exposed to the compound and Aβ 1-42 for 48 h (Figure 3) ([…]). The 6d, 8c, and 8d were tested at concentrations of 1, 5, and 10 μM. […] Therefore, it is imperative to elucidate the underlying mechanisms responsible for these protective effects.
The SHSY5Y cells were seeded in 96-well plates at a density of 1 × 10^4 cells per well and incubated at 37°C for 24 h. Each compound was dissolved in DMSO, followed by direct dilution in the cell culture medium to achieve final concentrations of 1 μM, 5 μM, and 10 μM. Aβ 1−42 was added to each well at a concentration of 5 μM. The cells were then further incubated at 37°C for an additional period of 48 h. Cell viability was subsequently assessed using the MTT assay protocol ([…]).

hBuChE = hBuChE (Homo sapiens, UniProt P06276); assay: Ellman's assay, hBuChE inhibition; type: biochemical; conditions: for IC50: Mean ± SD from 3-5 assays, read-out: IC50 (nM) for cholinesterase hBuChE; for inhibition at 1 µM: compound at 1 μM, read-out: inhibition of hBuChE in primary screening
Chain of hBuChE (P06276 29-602): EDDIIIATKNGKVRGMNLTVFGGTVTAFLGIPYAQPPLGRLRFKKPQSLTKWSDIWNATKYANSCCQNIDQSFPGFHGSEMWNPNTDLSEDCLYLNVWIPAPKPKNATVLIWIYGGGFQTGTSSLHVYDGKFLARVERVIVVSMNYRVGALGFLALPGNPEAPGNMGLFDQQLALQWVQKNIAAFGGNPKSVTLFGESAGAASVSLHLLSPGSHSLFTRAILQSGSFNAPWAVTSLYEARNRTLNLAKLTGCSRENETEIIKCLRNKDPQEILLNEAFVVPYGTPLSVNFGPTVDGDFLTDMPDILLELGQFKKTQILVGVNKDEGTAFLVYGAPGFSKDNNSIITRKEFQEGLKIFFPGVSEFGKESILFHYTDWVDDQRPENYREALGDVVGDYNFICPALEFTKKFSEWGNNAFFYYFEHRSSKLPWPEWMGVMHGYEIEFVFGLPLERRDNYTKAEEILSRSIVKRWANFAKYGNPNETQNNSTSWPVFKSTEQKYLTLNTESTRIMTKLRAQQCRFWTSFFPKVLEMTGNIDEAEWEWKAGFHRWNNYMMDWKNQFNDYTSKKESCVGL
Protocol: The Ellman’s assay was utilized to assess the inhibitory potential of novel bis(7)-harmine derivatives against hAChE and hBuChE. 50 μL of hAChE (0.02 unit/mL) or hBChE (0.02 unit/mL) were incubated with 10 μL of the compound in 96-well plates at 37°C for 6 min. Subsequently, 30 μL of a substrate solution containing acetylthiocholine iodide (ATCI) or butyrylthiocholine iodide (BTCI) at a concentration of 0.01 M was added, and the mixture was further incubated at 37°C for an additional duration of 12 min. Finally, the activity was measured by adding 150 μL of a solution containing 5,5′−dithiobis (2-nitrobenzoic acid) (DTNB) at a concentration of 0.01 M, followed by measuring absorbance at a wavelength of 415 nm using an Evolution 300 PC UV-Vis Spectrophotometer.

Aβ 1−42 = Aβ 1−42 (Homo sapiens, UniProt P05067); assay: Thioflavin T fluorescence assay, Aβ 1−42 self-aggregation; type: biochemical; conditions: Aβ 1-42 20 μM, 37°C, 24 h
Chain of Aβ 1−42 (P05067 672-713 limits assumed): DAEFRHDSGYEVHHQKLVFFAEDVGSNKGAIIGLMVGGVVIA
Protocol: The thioflavin T (Th-T) fluorescence assay was used to assess the inhibition of Aβ 1−42 self-aggregation. […] Subsequently, the reaction was terminated to a final volume of 200 μL using Th-T (10 μM) solution.

hAChE = hAChE (Homo sapiens, UniProt P22303); assay: biochemical; conditions: for IC50: Mean ± SD from 3-5 assays, read-out: IC50 (nM) for cholinesterase hAChE
Chain of hAChE (P22303 32-614): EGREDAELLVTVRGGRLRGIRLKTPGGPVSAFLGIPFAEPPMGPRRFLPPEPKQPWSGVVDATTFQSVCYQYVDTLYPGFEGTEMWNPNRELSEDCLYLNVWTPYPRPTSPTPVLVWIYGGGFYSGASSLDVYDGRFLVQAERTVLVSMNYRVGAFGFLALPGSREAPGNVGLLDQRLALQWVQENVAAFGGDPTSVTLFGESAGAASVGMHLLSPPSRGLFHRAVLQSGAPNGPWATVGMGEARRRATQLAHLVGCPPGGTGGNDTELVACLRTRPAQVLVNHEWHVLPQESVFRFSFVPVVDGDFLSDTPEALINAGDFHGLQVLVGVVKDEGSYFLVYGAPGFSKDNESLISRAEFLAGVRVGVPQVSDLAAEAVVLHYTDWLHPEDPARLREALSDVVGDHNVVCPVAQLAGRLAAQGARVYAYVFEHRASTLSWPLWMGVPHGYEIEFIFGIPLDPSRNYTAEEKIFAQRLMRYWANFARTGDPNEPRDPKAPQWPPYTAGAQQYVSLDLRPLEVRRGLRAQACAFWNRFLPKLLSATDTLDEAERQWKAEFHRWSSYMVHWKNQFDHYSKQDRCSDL
Protocol: 50 μL of hAChE (0.02 unit/mL) or hBChE (0.02 unit/mL) were incubated with 10 μL of the compound in 96-well plates at 37°C for 6 min. Subsequently, 30 μL of a substrate solution containing acetylthiocholine iodide (ATCI) or butyrylthiocholine iodide (BTCI) at a concentration of 0.01 M was added, and the mixture was further incubated at 37°C for an additional duration of 12 min.

SHSY5Y cells [2] = assay: In vitro cytotoxicity, MTT assay; type: cell-based; conditions: for cytotoxicity in SHSY5Y cells: 0.1 to 10 μM; for SHSY5Y cell viability at increased concentration: concentration increased to 10 μM (so in the source)
Protocol: Following this incubation period, the MTT solution was substituted with […] of DMSO and further incubated at room temperature for 10 minutes to dissolve formazan crystals formed by viable cells. Sorensen Buffer ([…]) was added subsequently followed by measuring absorbance at a wavelength of 570 nm to determine cell viability based on calculated values obtained from control samples without compound treatment. This experimental procedure was repeated independently three times.

recombinant hMAO-B = molecular target: T1, recombinant hMAO-B (Homo sapiens, UniProt P27338); assay: biochemical; conditions: mean ± SD; read-out: IC50 (nM) for monoamine oxidases hMAO-B
T1 construct: purchased Sigma-Aldrich
T1 sequence (P27338 1-520): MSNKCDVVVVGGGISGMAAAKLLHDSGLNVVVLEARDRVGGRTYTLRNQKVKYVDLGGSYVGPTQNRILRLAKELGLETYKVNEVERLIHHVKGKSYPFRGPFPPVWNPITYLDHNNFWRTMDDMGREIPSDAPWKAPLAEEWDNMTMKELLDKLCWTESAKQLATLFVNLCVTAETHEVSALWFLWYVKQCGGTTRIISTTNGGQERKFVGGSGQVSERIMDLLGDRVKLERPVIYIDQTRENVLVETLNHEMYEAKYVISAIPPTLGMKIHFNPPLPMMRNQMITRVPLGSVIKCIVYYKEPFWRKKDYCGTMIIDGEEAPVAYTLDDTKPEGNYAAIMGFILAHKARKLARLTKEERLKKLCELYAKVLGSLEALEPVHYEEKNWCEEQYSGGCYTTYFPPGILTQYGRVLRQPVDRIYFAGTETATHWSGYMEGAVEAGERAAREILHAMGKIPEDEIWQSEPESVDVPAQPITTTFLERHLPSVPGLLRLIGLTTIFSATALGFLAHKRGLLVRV
Protocol: (§1) Briefly, the compounds under investigation and the reference inhibitor were preincubated with kynuramine at 37°C for 10 min in 96-well microplates. […] The enzymatic reactions were terminated by adding 400 μL of 2 N NaOH and 1,000 μL of water, followed by centrifugation at 16,000 g for 10 min. Subsequently, the concentrations of MAOs that produced 4-hydroxyquinoline were determined by measuring the fluorescence of the supernatant using a Varioskan Flash Multimode Reader ([…]) with excitation and emission wavelengths set at 310 nm and 400 nm, respectively. The IC50 values were calculated from dose-response curves and expressed as the mean ± standard deviation. These values were determined based on at least three independent experiments, each performed in triplicate.

recombinant hMAO-A = molecular target: T2, recombinant hMAO-A (Homo sapiens, UniProt P21397); assay: biochemical; conditions: for IC50: mean ± SD, read-out: IC50 (nM) for monoamine oxidases hMAO-A
T2 construct: purchased Sigma-Aldrich
T2 sequence (P21397 1-527): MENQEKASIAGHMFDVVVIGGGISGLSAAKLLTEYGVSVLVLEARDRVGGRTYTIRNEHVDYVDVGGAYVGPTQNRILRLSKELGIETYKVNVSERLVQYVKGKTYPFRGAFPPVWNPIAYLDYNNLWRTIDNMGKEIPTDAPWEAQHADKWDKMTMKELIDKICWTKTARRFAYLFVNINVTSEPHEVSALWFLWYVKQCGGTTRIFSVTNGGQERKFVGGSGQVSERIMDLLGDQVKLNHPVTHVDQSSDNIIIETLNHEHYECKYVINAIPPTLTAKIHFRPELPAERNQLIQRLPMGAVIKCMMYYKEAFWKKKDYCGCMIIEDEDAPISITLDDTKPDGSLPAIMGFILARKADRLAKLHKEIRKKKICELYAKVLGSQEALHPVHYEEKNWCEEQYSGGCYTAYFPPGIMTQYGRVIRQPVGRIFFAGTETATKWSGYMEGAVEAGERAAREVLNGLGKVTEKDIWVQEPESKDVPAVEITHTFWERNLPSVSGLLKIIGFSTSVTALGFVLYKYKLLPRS
Protocol: as §1

Molecule	IC50 (Aβ 1−42) [µM]	S.I. Selectivity index IC50(hBuChE)/IC50(hAChE) (hAChE)	IC50 (hAChE) [nM]	IC50 (recombinant hMAO-B) [nM]	S.I. Selectivity index IC50(hMAO-B)/IC50(hMAO-A) (recombinant hMAO-A)	IC50 (recombinant hMAO-A) [nM]	inhibition at 1 µM (hBuChE) [%]	further results
c1ccc2c(NCCCCCCCNc3c4c(nc5ccccc35)CCCC4)c3c(nc2c1)CCCC3 [Compound 2, Bis-tacrine]								Aβ1-42 (bis-tacrine, Figure 1) (Aβ1-42; ref Bolognesi et al., 2010): 68.0%; IC50 (AChE; ref Bolognesi et al., 2010, read-out: IC50 for inhibiting AChE (bis-tacrine)): […]; IC50 (BACE1): 7500 nM; IC50 (BuChE; ref Bolognesi et al., 2010, read-out: IC50 for inhibiting BuChE (bis-tacrine)): 5.66 nM
c1ccc2c(c1)[nH]c1c[n+](CCCCCCCCCCCC[n+]3ccc4c(c3)[nH]c3ccccc34)ccc12 [Compound 4]								IC50 (AChE; ref Rook et al., 2010, Zhao et al., 2018, read-out: AChE (bis-(2)-β-carboline 4, Figure 1)): 86 nM; IC50 (BuChE; ref Rook et al., 2010, Zhao et al., 2018, read-out: BuChE (bis-(2)-β-carboline 4, Figure 1)): 22 nM
COC(=O)c1cc2c3ccccc3n(CCCCN(C)CCN(C)CCCCn3c4ccccc4c4cc(C(=O)OC)nc(C)c43)c2c(C)n1 [Compound 5, Bis-(9)-β-carboline]								Aβ1-42 (bis-(9)-β-carboline 5, Figure 1) (Aβ1-42; ref Rook et al., 2010, Zhao et al., 2018): 65.5%; IC50 (AChE; ref Rook et al., 2010, Zhao et al., 2018, read-out: AChE (bis-(9)-β-carboline 5, Figure 1)): 9600 nM; IC50 (BuChE; ref Rook et al., 2010, Zhao et al., 2018, read-out: BuChE (bis-(9)-β-carboline 5, Figure 1)): 1500 nM
C=CCn1c2cc(OCCCCCCOc3ccc4c5ccnc(C)c5n(CC=C)c4c3)ccc2c2ccnc(C)c21 [Compound 6d, 1,6-bis ((9-allyl-1-methyl-9H-pyrido [3,4-b]indol-7-yl)oxy)hexane]	14.1 ± 0.5	1.9	54.3 ± 3.6	189 ± 13.6	0.5	402 ± 23.7		cellular recovery from Aβ 1-42-induced damage (SHSY5Y cells [1]): significant cellular recovery; IC50 (hBuChE): 102 ± 4.6 nM; effect on SHSY5Y cell viability (SHSY5Y cells [2]; 0.1–100 μM, 48 h incubation): no significant impact on cell viability
C=CCn1c2cc(OC(=O)CCCCN3CCN(Cc4ccc(C(F)(F)F)cc4)CC3)ccc2c2ccnc(C)c21 [Compound 7]								IC50 (Aβ1-42; ref Du et al., 2023, Haider et al., 2018, read-out: Aβ1-42 (compound 7 of Figure 1)): 12400 nM; IC50 (AChE; ref Du et al., 2023, Haider et al., 2018, read-out: AChE (compound 7 of Figure 1)): 48.4 nM; IC50 (BuChE; ref Du et al., 2023, Haider et al., 2018, read-out: BuChE (compound 7 of Figure 1)): 356 nM
Cc1nccc2c3ccc(OCCCCCCCOc4ccc5c6ccnc(C)c6n(C)c5c4)cc3n(C)c12 [Compound 7a, 1,7-bis ((1,9-dimethyl-9H-pyrido [3,4-b]indol-7-yl)oxy)heptane]	6.3 ± 0.2	>4.4	226 ± 13.4	281 ± 24.5	40.1	7.2 ± 0.8	37.3	effect on SHSY5Y cell viability (SHSY5Y cells [2]; 1 μM, 48 h): pronounced detrimental effect
CCn1c2cc(OCCCCCCCCOc3ccc4c5ccnc(C)c5n(CC)c4c3)ccc2c2ccnc(C)c21 [Compound 8b, 1,8-bis ((9-ethyl-1-methyl-9H-pyrido [3,4-b]indol-7-yl)oxy)octane]	18.7 ± 0.9	2.7	324 ± 20.5	758 ± 52.6	11.5	66.5 ± 4.1		IC50 (hBuChE): 855 ± 48.8 nM; effect on SHSY5Y cell viability (SHSY5Y cells [2]; 1 μM, 48 h): pronounced detrimental effect
CCCn1c2cc(OCCCCCCCCOc3ccc4c5ccnc(C)c5n(CCC)c4c3)ccc2c2ccnc(C)c21 [Compound 8c, 1,8-bis ((1-methyl-9-propyl-9H-pyrido [3,4-b]indol-7-yl)oxy)octane]	19.3 ± 1	>6.3	158 ± 11.6	153 ± 8.3	9.5	16.4 ± 1.1	43.4	cytotoxicity in SHSY5Y cells (SHSY5Y cells [2]; 48 h): negligible cytotoxicity; SHSY5Y cell viability at increased concentration (SHSY5Y cells [2]; 48 h): evident decrease in SHSY5Y cell viability
C=CCn1c2cc(OCCCCCCCCOc3ccc4c5ccnc(C)c5n(CC=C)c4c3)ccc2c2ccnc(C)c21 [Compound 8d, 1,8-bis ((9-allyl-1-methyl-9H-pyrido [3,4-b]indol-7-yl)oxy)octane]	9.2 ± 0.4	>1.0	963 ± 69.5	335 ± 13.8		25.7 ± 1.9	39.8	cellular recovery from Aβ 1-42-induced damage (SHSY5Y cells [1]): significant cellular recovery; cytotoxicity in SHSY5Y cells (SHSY5Y cells [2]; 48 h): negligible cytotoxicity; SHSY5Y cell viability at increased concentration (SHSY5Y cells [2]; 48 h): evident decrease in SHSY5Y cell viability
Aβ 1−42: amyloid-β peptide 1−42 used to induce damage in SHSY5Y cells [reference compound]								reduction of viability of SHSY5Y neuroblastoma cells (SHSY5Y cells [1]; treatment with Aβ 1−42 5 μM, 48 h, MTT): 48.7%
